System: spermatozoa present in free semen
Excerpt: In order to obtain efficient fertilization, more than 50% of the spermatozoa have to be […] (i.e. having an individual displacement velocity of more than 20 micrometers per second).
Gedil® is a diluting agent consisting of a biological medium favorable to preservation of spermatozoa.

Structure (SMILES): [Ba+2].[Cl-].[Cl-] [BaCl2, barium chloride]
- motility of the spermatozoa (BaCl2 at 5 or 10% on free semen, after two days): significant reduction
- effect on essential properties (such as the motility) of porcine spermatozoa (products present in the capsules): alter the essential properties
- toxicity (or stress) for spermatozoa (spermatozoa diluted in media other than Gedil, addition of BaCl2): toxicity

From patent publication US20120295247A1, “PORCINE SEMINAL MATERIAL COMPOSITION FOR ARTIFICIAL INSEMINATION OF SOWS” (GENES DIFFUSION, priority 2009, published 2012)
